Reference: US20250214947A1, “3,4-DIHYDROQUINOXALINE-2-CARBOXIMIDE DERIVATIVE COMPOUND AND PHARMACEUTICAL COMPOSITION COMPRISING SAME FOR PREVENTING OR TREATING CANCER DISEASE” (Cureverse Incorporated, priority 2022, published 2025)
Each block holds one molecule with its values, some of them ahead of it.

Tests used:
[1] = biological target: T1, HDAC8 (Homo sapiens, UniProt Q9BY41); assay: HDAC8 inhibitory activity analysis (in vitro), RFU analysis, HDAC Fluorogenic assay kit; format: biochemical; settings: 10 μM; compared with TSA or SAHA
T1 construct: purchased BPS bioscience
T1 sequence (Q9BY41 1-377): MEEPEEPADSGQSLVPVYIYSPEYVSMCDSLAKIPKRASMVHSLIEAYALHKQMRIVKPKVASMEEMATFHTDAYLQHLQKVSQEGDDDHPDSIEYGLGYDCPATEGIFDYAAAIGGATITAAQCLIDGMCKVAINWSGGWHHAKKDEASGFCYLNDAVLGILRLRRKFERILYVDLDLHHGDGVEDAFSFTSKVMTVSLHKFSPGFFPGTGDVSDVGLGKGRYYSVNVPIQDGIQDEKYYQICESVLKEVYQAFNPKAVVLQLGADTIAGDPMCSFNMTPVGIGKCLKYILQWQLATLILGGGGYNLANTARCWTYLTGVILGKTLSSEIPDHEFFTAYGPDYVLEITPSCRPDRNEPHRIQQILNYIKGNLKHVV
Description: The compound of the Example was diluted to 1 mM (1% DMSO concentration) using DMSO to obtain a final concentration of 10 μM, and prepared by diluting 1/10 with assay buffer. In a 96-well black round-bottom plate, 5 μL of the diluted compound of the Example, 5 μL of the diluted HDAC substrate 2A, 5 μL of BSA (1 mg/mL), 5 µL of the HDAC8 enzyme diluted to an appropriate concentration, and 30 μL of assay buffer were added, and the enzyme reaction was performed at 37° C. for 30 minutes. […] Afterwards, 50 μL of 2×HDAC developer was added to each well. After reacting for 15 minutes at room temperature, the fluorescence values at excitation wavelengths of 350-380 nm and emission wavelengths of 440-460 nm were measured using a microplate reader (Synergy Neo).

[2] = biological target: HDAC1 (Homo sapiens, UniProt Q13547); assay: Selective inhibitory effect, HDAC Fluorogenic assay kit, HDAC1; settings: read-out: HDAC1 enzyme activity (%)
HDAC1, sequence (Q13547 whole entry): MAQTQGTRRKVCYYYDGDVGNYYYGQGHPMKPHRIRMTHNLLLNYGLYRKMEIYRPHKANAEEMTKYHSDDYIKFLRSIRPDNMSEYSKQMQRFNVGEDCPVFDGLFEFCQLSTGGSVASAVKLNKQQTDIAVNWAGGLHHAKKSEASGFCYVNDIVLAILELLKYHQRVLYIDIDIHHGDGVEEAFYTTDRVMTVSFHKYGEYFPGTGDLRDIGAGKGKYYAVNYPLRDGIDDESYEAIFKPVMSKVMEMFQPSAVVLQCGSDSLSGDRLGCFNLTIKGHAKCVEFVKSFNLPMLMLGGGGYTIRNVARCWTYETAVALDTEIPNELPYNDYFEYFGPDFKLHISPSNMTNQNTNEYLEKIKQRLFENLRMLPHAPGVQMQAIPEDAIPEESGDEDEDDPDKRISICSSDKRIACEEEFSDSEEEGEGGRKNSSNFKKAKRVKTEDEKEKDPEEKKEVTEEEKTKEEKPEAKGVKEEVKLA
Description: (§1) For analysis, HDAC substrate 3 was diluted in buffer to a concentration of 200 μM and used in HDAC 1, 2, 3, 6, and 10 assays, HDAC substrate 2A was diluted in buffer to a concentration of 200 μM and used in HDAC 4, 7, 9, and 11 assays, HDAC substrate 2A was diluted in buffer to a concentration of 20 μM and used in HDAC 8 assays. For the HDAC 11 assay, a dedicated buffer included in the kit was used separately, and the same buffer was used for the remaining assays. The compound of the Example was diluted to 1 mM (1% DMSO concentration) using DMSO to obtain a final concentration of 10 μM, and prepared by diluting 1/10 with assay buffer. In a 96-well black round-bottom plate, 5 μL of the diluted compound of the Example, 5 μL of the diluted HDAC substrate, 5 μL of BSA (1 mg/ml), 5 μL of the HDAC enzyme diluted to the appropriate concentration, and 30 μL of assay buffer were added, and the enzyme reaction was performed at 37° C. for 30 minutes. […] Afterwards, 50 μL of 2×HDAC developer was added to each well. After reacting for 15 minutes at room temperature, the fluorescence values at excitation wavelengths of 350-380 nm and emission wavelengths of 440-460 nm were measured using a microplate reader (Synergy Neo).

[3] = biological target: HDAC2 (Homo sapiens, UniProt Q92769); assay: Selective inhibitory effect, HDAC Fluorogenic assay kit, HDAC2; settings: read-out: HDAC2 enzyme activity (%)
HDAC2, sequence (Q92769 whole entry): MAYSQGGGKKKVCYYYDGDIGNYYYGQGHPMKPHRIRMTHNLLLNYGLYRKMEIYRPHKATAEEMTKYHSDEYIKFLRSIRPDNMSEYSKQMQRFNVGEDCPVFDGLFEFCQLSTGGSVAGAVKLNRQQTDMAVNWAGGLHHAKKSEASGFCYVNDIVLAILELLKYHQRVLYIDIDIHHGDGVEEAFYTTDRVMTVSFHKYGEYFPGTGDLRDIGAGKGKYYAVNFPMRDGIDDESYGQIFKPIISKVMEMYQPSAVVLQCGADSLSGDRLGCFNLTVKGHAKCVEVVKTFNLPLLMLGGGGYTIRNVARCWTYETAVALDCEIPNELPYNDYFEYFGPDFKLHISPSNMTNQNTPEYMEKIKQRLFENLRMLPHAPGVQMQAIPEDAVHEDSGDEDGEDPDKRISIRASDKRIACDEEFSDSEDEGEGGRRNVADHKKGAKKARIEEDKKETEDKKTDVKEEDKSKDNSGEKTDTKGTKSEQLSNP
Description: as §1

[4] = biological target: T2, HDAC6 (Homo sapiens, UniProt Q9UBN7); assay: Selective inhibitory effect, HDAC Fluorogenic assay kit, HDAC6; settings: read-out: HDAC6 enzyme activity (%)
T2 sequence (Q9UBN7 1-1215): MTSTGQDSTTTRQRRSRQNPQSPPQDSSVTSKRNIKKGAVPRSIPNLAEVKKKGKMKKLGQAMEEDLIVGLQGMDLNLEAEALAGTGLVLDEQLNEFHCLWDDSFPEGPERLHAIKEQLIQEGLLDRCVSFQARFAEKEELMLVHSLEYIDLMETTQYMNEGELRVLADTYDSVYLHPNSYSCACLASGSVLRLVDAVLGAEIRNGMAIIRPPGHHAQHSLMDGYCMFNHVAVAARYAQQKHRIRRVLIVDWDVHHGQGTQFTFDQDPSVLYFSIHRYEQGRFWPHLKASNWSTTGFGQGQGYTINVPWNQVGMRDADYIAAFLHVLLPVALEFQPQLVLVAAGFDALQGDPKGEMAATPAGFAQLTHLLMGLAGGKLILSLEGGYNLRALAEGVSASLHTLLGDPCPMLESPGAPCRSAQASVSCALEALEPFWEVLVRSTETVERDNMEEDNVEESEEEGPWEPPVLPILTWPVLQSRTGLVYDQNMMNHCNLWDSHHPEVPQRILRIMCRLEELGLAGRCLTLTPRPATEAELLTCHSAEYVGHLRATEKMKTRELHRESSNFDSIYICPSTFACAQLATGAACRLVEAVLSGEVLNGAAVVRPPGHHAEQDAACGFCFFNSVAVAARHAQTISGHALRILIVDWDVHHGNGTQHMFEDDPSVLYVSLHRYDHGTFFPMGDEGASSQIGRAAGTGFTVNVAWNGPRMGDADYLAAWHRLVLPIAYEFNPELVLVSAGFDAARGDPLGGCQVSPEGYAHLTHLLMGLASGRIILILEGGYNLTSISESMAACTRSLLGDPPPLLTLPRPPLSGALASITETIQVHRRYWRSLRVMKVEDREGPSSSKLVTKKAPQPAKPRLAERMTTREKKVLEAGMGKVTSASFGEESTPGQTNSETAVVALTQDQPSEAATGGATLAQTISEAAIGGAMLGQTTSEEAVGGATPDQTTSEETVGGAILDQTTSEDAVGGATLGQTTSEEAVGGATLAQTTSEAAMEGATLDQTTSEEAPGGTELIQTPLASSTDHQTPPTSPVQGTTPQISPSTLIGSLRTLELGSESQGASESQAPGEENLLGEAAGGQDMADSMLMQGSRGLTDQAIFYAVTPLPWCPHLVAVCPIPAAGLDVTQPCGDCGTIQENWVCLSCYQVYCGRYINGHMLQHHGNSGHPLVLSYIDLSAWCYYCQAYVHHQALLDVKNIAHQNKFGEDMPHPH
Description: as §1

[5] = biological target: T3, HDAC10 (Homo sapiens, UniProt Q969S8); assay: Selective inhibitory effect, HDAC Fluorogenic assay kit, HDAC10; settings: read-out: HDAC10 enzyme activity (%)
T3 sequence (Q969S8 1-669): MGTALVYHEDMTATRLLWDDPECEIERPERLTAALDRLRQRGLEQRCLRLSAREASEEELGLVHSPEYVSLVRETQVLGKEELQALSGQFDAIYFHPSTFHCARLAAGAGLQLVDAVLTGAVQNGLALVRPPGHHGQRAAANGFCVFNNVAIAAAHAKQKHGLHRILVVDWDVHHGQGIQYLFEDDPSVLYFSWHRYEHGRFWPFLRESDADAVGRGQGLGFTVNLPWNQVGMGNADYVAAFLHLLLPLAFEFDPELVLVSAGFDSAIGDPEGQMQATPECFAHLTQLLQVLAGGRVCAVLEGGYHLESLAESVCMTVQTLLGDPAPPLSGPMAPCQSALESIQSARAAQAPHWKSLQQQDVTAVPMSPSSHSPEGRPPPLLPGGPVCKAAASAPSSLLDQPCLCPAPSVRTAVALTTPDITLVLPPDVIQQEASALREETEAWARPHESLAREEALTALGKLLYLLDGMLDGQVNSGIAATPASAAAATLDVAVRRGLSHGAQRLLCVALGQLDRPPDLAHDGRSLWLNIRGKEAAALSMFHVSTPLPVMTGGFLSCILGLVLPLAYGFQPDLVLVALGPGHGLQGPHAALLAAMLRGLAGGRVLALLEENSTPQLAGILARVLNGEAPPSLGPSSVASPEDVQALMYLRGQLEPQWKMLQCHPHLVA
Description: as §1

[6] = tested on: Liver cancer cells Huh-7; assay: Liver cancer cell growth inhibition, CellTiter-Glo Luminescent Cell Viability Assay; format: cell-based; settings: various concentrations; day 1; FIG. 6
Description: In addition, an analysis of liver cancer growth inhibitory activity was performed. Liver cancer cells Huh-7 cells were dispensed in a 96-well plate at 1×10^4 cells/ml, and after 20 hours, PCI34051, Example 27, and Example 35 were added at various concentrations, and cultured for 24 and 48 hours at 37° C. in a 5% CO2 atmosphere. After culturing, 100 l CellTiter-Glo Luminescent Cell Viability Assay reagent was added and the luminescence signal was measured after 0.5-1 hour. The luminescence signal was measured using IVIS [PerkinElmer, (Waltham, USA)].

[7] = tested on: PC-3 prostate cancer cells; assay: Prostate cancer cell growth inhibition, CCK-8 assay; format: cell-based, human; settings: various concentrations, FIG. 1
Description: PC-3, a human-derived prostate cancer cell line, was cultured with RPMI1640 (10% fetal bovine serum, 1% Penicillin Streptomycin) culture medium at 37° C., 5% CO2 condition. All cells in the experiment were subcultured when they reached a confluency of approximately 80% to 90%, and only cells that had not passed 20 passages were used.
After culturing, 10 L CCK-8 reagent was added and the absorbance was measured after 1 hour. The absorbance was measured at 450 nm using a microplate reader [BMG Labtech (Offenburg, Germany)].

Compound: Cc1cc2nc(C(=O)Nc3cc(C(=O)NO)ccc3C)c(=O)n(C[C@H](O)[C@H](O)[C@H](O)CO)c2cc1C [Example 51, N-(5-(hydroxycarbamoyl)-2-methylphenyl)-6,7-dimethyl-3-oxo-4-((2S,3S,4R)-2,3,4,5-tetrahydroxypentyl)-3,4-dihydroquinoxaline-2-carboxamide]
inhibitory activity against HDAC8 (in words) [1]: inhibitory activity similar to TSA or SAHA

Compound: Cc1cc2nc(C(=O)Nc3ccc(C(=O)NO)cc3)c(=O)n(C[C@H](O)[C@H](O)[C@H](O)CO)c2cc1C [Example 48, N-(4-(hydroxycarbamoyl)phenyl)-6,7-dimethyl-3-oxo-4-((2S,3S,4R)-2,3,4,5-tetrahydroxypentyl)-3,4-dihydroquinoxaline-2-carboxamide]
inhibitory activity against HDAC8 (in words) [1]: inhibitory activity similar to TSA or SAHA

Compound: Cc1cc2nc(C(=O)NCc3ccc(CC(=O)NO)cc3)c(=O)n(C[C@H](O)[C@H](O)[C@H](O)CO)c2cc1C [Example 49, N-(4-(2-(hydroxyamino)-2-oxoethyl)benzyl)-6,7-dimethyl-3-oxo-4-((2S,3S,4R)-2,3,4,5-tetrahydroxypentyl)-3,4-dihydroquinoxaline-2-carboxamide]
inhibitory activity against HDAC8 (in words) [1]: inhibitory activity similar to TSA or SAHA

remaining activity at 10 µM [2]: 1.22%
remaining activity at 10 µM [3]: 0.7%
remaining activity at 10 µM [4]: 1.11%
remaining activity at 10 µM [5]: 1.21%
Compound: CC(/C=C/C(=O)NO)=C\[C@@H](C)C(=O)c1ccc(N(C)C)cc1 [TSA, Trichostatin A, reference compound]

Compound: Cc1cc2nc(C(=O)Nc3cc(-c4ccc(Br)cc4)no3)c(=O)n(C[C@H](O)[C@H](O)[C@H](O)CO)c2cc1C [Example 10, N-(3-(4-bromophenyl)isoxazol-5-yl)-6,7-dimethyl-3-oxo-4-((2S,3S,4R)-2,3,4,5-tetrahydroxypentyl)-3,4-dihydroquinoxaline-2-carboxamide]
inhibitory activity against HDAC8 (in words) [1]: inhibitory activity similar to TSA or SAHA

Compound: COc1ccc(Cn2ccc3ccc(C(=O)NO)cc32)cc1 [PCI-34051, N-hydroxy-1-(4-methoxybenzyl)-1H-indole-6-carboxamide, reference compound]
Huh-7 cell viability (in words) [6]: concentration-dependent inhibition of cancer cell viability

Compound: Cc1cc2nc(C(=O)NCc3ccc4[nH]cnc4c3)c(=O)n(C[C@H](O)[C@H](O)[C@H](O)CO)c2cc1C [Example 34, N-((1H-benzo[d]imidazol-5-yl)methyl)-6,7-dimethyl-3-oxo-4-((2S,3S,4R)-2,3,4,5-tetrahydroxypentyl)-3,4-dihydroquinoxaline-2-carboxamide]
inhibitory activity against HDAC8 (in words) [1]: inhibitory activity similar to TSA or SAHA

Compound: Cc1cc2nc(C(=O)Nc3nc4c(F)cccc4[nH]3)c(=O)n(C[C@H](O)[C@H](O)[C@H](O)CO)c2cc1C [Example 35, N-(4-fluoro-1H-benzo[d]imidazol-2-yl)-6,7-dimethyl-3-oxo-4-((2S,3S,4R)-2,3,4,5-tetrahydroxypentyl)-3,4-dihydroquinoxaline-2-carboxamide]
inhibitory activity against HDAC8 (in words) [1]: inhibitory activity similar to TSA or SAHA
PC-3 cell viability after 24 hours (in words) ([7]; 24 hours): concentration-dependent inhibition of cancer cell viability
PC-3 cell viability after 48 hours (in words) ([7]; 48 hours): cell viability was restored
Huh-7 cell viability (in words) [6]: concentration-dependent inhibition of cancer cell viability
